Where two headings read alike, the source gives them in different places.
What was measured:
Experiment in all cases: biochemical
Parameters in all cases: KINOMEscan scanMAX competition binding, DNA-tagged kinases, qPCR read-out, percent control at 300 nM
ERK3 = biological target: T1, ERK3 (Homo sapiens, UniProt Q16659)
T1 construct: gene MAPK6

FLT3 = biological target: T2, FLT3 (Homo sapiens, UniProt P36888)
T2 sequence (P36888 1-993): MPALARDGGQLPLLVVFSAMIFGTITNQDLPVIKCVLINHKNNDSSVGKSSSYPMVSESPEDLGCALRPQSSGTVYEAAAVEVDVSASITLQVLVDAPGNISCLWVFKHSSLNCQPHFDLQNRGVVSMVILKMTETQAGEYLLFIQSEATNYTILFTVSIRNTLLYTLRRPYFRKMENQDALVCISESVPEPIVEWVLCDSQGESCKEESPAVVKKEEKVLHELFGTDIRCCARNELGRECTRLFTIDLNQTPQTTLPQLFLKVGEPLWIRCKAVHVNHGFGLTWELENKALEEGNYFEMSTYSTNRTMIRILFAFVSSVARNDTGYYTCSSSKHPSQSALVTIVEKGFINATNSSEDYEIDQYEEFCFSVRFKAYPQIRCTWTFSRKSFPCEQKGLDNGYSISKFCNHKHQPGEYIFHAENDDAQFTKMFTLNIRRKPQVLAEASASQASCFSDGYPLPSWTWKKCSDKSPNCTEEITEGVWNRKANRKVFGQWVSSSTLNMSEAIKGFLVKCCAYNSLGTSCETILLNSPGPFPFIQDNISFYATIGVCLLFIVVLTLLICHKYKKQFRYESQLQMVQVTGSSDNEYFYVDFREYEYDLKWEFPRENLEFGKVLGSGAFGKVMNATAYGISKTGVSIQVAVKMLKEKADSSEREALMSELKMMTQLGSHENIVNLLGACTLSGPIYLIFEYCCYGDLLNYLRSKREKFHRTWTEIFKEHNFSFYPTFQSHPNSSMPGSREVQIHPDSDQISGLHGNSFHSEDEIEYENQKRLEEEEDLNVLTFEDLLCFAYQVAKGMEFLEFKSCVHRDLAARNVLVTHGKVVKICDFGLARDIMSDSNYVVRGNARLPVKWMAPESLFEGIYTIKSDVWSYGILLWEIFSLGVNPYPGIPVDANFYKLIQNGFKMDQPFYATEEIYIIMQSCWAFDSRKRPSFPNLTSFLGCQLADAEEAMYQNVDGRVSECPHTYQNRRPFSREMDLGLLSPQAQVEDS

HIPK4 = biological target: T3, HIPK4 (Homo sapiens, UniProt Q8NE63)
T3 sequence (Q8NE63 1-616): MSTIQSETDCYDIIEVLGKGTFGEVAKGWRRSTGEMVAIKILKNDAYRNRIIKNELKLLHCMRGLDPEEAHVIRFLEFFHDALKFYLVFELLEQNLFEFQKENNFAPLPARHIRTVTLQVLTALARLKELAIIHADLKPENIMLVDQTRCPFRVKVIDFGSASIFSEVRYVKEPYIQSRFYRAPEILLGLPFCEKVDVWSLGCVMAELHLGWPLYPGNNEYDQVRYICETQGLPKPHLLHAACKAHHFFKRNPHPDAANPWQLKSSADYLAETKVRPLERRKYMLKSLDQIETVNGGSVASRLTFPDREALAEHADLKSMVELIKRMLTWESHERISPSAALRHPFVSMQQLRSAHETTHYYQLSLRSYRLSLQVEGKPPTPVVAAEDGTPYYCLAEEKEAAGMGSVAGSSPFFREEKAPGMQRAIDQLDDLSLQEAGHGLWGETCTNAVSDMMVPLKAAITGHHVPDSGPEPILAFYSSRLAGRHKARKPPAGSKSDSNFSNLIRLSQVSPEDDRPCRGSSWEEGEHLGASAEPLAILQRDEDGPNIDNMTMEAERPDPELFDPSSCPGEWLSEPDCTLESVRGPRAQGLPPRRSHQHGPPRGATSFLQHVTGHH

VEGFR2 = biological target: T4, VEGFR2 (Homo sapiens, UniProt P35968)
T4 construct: gene KDR
T4 sequence (P35968 whole entry): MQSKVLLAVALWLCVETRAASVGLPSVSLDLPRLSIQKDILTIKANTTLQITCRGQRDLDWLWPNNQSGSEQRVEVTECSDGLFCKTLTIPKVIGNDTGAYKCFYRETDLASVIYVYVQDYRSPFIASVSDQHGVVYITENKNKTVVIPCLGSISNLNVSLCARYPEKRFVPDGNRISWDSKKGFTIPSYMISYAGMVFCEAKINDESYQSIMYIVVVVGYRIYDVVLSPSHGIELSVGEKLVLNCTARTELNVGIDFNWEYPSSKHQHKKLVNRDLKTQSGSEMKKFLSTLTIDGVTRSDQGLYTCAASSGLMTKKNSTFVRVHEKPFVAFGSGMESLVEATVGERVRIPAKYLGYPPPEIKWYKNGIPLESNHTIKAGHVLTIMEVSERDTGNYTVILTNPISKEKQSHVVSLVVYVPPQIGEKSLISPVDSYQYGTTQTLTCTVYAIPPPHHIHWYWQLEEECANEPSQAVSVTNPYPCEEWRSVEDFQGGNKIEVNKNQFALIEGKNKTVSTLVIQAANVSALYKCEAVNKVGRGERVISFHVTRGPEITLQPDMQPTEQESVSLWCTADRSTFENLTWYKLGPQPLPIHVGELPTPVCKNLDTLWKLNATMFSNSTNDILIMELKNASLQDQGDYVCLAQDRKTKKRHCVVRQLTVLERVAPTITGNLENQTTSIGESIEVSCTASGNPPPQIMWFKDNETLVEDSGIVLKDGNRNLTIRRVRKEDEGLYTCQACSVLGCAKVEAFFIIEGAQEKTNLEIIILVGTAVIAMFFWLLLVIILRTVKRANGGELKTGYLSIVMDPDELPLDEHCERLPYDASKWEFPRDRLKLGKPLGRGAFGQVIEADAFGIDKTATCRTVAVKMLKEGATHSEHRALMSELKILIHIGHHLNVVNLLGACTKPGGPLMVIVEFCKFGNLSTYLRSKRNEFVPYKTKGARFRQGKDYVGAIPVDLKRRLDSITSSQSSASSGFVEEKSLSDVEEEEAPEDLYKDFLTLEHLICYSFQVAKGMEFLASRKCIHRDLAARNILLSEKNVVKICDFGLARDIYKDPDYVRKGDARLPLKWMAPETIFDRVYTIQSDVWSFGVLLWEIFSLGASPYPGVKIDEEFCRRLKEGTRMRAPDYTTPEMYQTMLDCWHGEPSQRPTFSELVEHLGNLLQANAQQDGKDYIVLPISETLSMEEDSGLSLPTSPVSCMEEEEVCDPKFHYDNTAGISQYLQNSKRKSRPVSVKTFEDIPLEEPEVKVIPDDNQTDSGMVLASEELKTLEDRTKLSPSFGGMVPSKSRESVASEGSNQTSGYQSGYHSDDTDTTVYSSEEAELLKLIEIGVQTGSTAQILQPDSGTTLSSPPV

PRKCD = PRKCD (Homo sapiens, UniProt Q05655)
Chain of PRKCD (Q05655 whole entry): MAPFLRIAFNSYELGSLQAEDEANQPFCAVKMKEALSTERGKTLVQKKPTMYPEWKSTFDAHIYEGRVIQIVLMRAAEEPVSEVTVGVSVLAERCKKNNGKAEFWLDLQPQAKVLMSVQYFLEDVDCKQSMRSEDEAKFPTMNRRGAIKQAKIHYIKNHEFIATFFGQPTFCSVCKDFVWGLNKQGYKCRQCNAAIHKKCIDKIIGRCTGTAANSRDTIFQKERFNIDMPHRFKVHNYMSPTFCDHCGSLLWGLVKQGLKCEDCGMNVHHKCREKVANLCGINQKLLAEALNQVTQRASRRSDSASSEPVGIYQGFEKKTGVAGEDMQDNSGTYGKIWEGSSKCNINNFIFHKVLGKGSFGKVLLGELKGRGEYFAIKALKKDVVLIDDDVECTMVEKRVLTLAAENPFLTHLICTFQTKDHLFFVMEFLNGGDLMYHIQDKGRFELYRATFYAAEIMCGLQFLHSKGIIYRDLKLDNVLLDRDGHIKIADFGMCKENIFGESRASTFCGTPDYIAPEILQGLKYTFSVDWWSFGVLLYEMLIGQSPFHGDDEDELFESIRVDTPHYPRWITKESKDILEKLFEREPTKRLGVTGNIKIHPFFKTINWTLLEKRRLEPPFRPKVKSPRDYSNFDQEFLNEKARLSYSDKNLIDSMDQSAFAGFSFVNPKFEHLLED

[1] = read-out: Percent control / Acalabrutinib
[2] = read-out: Percent control / Ibrutinib
[3] = read-out: Percent control / Tirabrutinib
[4] = read-out: Percent control / Zanubrutinib

T1 sequence (Q16659 whole entry): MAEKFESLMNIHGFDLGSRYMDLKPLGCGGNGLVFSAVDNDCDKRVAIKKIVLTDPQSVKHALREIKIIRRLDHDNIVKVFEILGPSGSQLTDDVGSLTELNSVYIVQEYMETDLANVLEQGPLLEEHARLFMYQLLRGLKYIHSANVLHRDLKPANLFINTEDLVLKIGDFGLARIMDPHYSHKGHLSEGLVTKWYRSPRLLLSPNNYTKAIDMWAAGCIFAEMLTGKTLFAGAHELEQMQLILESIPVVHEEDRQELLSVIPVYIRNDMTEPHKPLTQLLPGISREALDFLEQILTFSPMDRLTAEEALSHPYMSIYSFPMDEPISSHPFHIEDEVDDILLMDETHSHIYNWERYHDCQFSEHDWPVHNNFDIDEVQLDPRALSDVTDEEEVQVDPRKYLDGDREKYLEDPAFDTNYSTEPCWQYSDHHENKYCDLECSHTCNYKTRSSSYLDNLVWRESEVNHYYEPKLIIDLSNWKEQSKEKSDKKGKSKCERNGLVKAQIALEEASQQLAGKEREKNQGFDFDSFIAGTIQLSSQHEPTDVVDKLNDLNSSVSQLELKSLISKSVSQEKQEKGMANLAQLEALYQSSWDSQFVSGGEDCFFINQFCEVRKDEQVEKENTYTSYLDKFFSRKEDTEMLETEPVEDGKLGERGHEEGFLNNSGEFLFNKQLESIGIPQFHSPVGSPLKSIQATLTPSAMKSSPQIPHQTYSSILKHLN

CC#CC(=O)N1CCC[C@H]1c1nc(-c2ccc(C(=O)Nc3ccccn3)cc2)c2c(N)nccn12 [Acalabrutinib]
remaining binding at 0.3 µM (ERK3; [1]): 91% | remaining binding at 0.3 µM (FLT3; [1]): 86% | remaining binding at 0.3 µM (HIPK4; [1]): 85% | remaining binding at 0.3 µM (VEGFR2; [1]): 98%

C=CC(=O)N1CCC[C@@H](n2nc(-c3ccc(Oc4ccccc4)cc3)c3c(N)ncnc32)C1 [Ibrutinib]
remaining binding at 0.3 µM (FLT3; [2]): 47% | remaining binding at 0.3 µM (HIPK4; [2]): 98% | remaining binding at 0.3 µM (PRKCD; [2]): 90% | remaining binding at 0.3 µM (VEGFR2; [2]): 95%

CC#CC(=O)N1CC[C@@H](n2c(=O)n(-c3ccc(Oc4ccccc4)cc3)c3c(N)ncnc32)C1 [Tirabrutinib]
remaining binding at 0.3 µM (ERK3; [3]): 90% | remaining binding at 0.3 µM (FLT3; [3]): 98% | remaining binding at 0.3 µM (PRKCD; [3]): 90%

C=CC(=O)N1CCC([C@@H]2CCNc3c(C(N)=O)c(-c4ccc(Oc5ccccc5)cc4)nn32)CC1 [Zanubrutinib]
remaining binding at 0.3 µM (ERK3; [4]): 98% | remaining binding at 0.3 µM (FLT3; [4]): 90% | remaining binding at 0.3 µM (HIPK4; [4]): 87% | remaining binding at 0.3 µM (PRKCD; [4]): 83% | remaining binding at 0.3 µM (VEGFR2; [4]): 100%

Reference: paper PMC10004634 (PLOS ONE, 2023)
